Assay results from US20150315218A1, “SALTS OF PRODRUGS OF PIPERAZINE AND SUBSTITUTED PIPERIDINE ANTIVIRAL AGENTS” (Bristol-Myers Squibb Company, priority 2004, published 2015).
Read-outs that look alike come from different tables or passages of the source.

Assays:
[1] = Single-dose toxicokinetic and tolerability study of prodrugs in dogs; format: in vivo, dog; conditions: for concentration at 24 h / AUC(0-inf) / half-life: dog, plasma; for concentration at 24 h: oral, read-out: C24h; for AUC(0-inf) / half-life: po; for half-life: read-out: T1/2 (converted)
Procedure: A multi-phase study was conducted to evaluate the tolerability of the prodrug, Iab (monolysine salt) at dosages of 24, 90, or 240 mg/kg (free acid, molar equivalent to 19, 71, or 190 mg/kg of parent IVa, respectively) and the toxicokinetics of lab and IVa (4). Iab was administered to two female dogs/group once daily either as an aqueous solution (24 or 90 mg/kg) or dry-filled capsules (24, 90 [once and twice daily] or 240 mg/kg). The endpoints were: clinical signs, body weight, food consumption, and plasma toxicokinetics of lab and IVa. In all cases, a 1-week washout period was used between doses for all phases of the study. […]
On day 1, Icb was administered to one dog/sex/group once daily in dry-filled capsules at the above dosages. A 1-week washout period was used between doses in the study. On day 8, Icb was administered to one dog/sex/group once daily as an aqueous solution at 25 mg/kg or twice daily in dry-filled capsules at 46 or 125 mg/kg BID.

[2] = IV and PO pharmacokinetic studies of prodrug salts (Iab, Ibb, Icb) in the dog, with historical parent data; format: in vivo, beagle dogs; conditions: plasma; for half-life: read-out: T1/2 (converted); for concentration at 24 h: read-out: C-24 hr; for AUC: read-out: AUCtot; for Cmax: read-out: Cmax
Procedure: The IV and PO studies of Iab were conducted in a crossover fashion in three male beagle dogs (11±1.1 kg, Marshall Farms USA Inc., North Rose, N.Y.). There was a two-week washout period between the IV and PO studies.
(§1) In the IV study, Iab was infused via the cephalic vein at 1.2 mg/kg (free acid, or 0.95 mg/kg of IVa equivalent) over 5 min at a constant rate of 0.1 mL/kg/min. The concentration of the dosing solution was 2.4 mg/mL, and the dosing volume was 0.5 mL/kg. Serial blood samples were collected from the femoral artery before dosing and at 5, 10, 15, 30, 45 min, 1, 2, 4, 6, 8 and 24 hr after dosing.
In the PO study, the dogs were fasted overnight before dosing. Iab was administered by oral gavage at 6.6 mg/kg (free acid, or 5.2 mg/kg of IVa equivalent). The concentration of the dosing solution was 13.2 mg/mL, and the dosing volume was 0.5 mL/kg. Serial blood samples were collected before dosing and at 15, 30, 45 min, 1, 2, 4, 6, 8 and 24 hr after dosing.
The IV and PO studies of Ibb were conducted in male beagle dogs (10±0.78 kg, Marshall Farms USA Inc., North Rose, N.Y.). Three dogs were used in each study. Of the three dogs, two same dogs were used for both IV and PO studies. There was a two-week washout period between the IV and PO studies.
The concentration of the dosing solution was 2.6 mg/mL, and the dosing volume was 0.5 mL/kg. Serial blood samples were collected from the femoral artery before dosing and at 5, 10, 15, 30, 45 min, 1, 2, 4, 6, 8 and 24 hr after dosing.
In the PO study, the dogs were fasted overnight before dosing. […] The concentration of the dosing solution was 7.0 mg/mL, and the dosing volume was 1 mL/kg. Serial blood samples were collected before dosing and at 15, 30, 45 min, 1, 2, 4, 6, 8 and 24 hr after dosing.
The IV and PO studies of Icb were conducted in a crossover fashion in three male beagle dogs (12±2.8 kg, Marshall Farms USA Inc., North Rose, N.Y.). There was a two-week washout period between the IV and PO studies.
as §1, with “Icb” for “Iab”, “1.3” for “1.2”, “1.0” for “0.95”, “IVe” for “IVa”, “2.6” for “2.4”
In the PO study, the dogs were fasted overnight before dosing. […] The concentration of the dosing solution was 12 mg/mL, and the dosing volume was 0.5 mL/kg. Serial blood samples were collected before dosing and at 15, 30, 45 min, 1, 2, 4, 6, 8 and 24 hr after dosing.

[3] = female, 25 mg/kg, dog 2201F, day 1, Ibb 25 mg/kg QD dry-filled capsules
[4] = female, 25 mg/kg, dog 2201F, day 8, Ibb 25 mg/kg QD aqueous solution
[5] = female, 92 mg/kg, dog 3201F, day 1, Ibb 92 mg/kg QD dry-filled capsules
[6] = female, 250 mg/kg, dog 4201F, day 1, Ibb 250 mg/kg QD dry-filled capsules
[7] = male, 25 mg/kg, dog 2101M, day 1, Ibb 25 mg/kg QD dry-filled capsules
[8] = male, 25 mg/kg, dog 2101M, day 8, Ibb 25 mg/kg QD aqueous solution
[9] = male, 92 mg/kg, dog 3101M, day 1, Ibb 92 mg/kg QD dry-filled capsules
[10] = male, 250 mg/kg, dog 4101M, day 1, Ibb 250 mg/kg QD dry-filled capsules

With `O=C(C(=O)N1CCN(C(=O)c2ccccc2)CC1)c1c[nH]c2c(-n3ccnn3)ncc(F)c12` [IVb] as the molecule, how does the “time post-second dose at which mean Cmax of parent was achieved” value ([1]; dogs, BID dosing of prodrug) read?
Its value is 1 to 2 h.

What about the “time post-dose at which mean Cmax of parent was achieved” value ([1]; dogs, once daily (QD) dosing of prodrug) of the same molecule?
Its value is 1 to 4 h.

What about the concentration at 24 h [1, 3] of the same molecule?
The concentration at 24 h was 688 nM.

What about the concentration at 24 h [1, 4] of the same molecule?
Its concentration at 24 h is 107 nM.

And the concentration at 24 h ([1]; female, 46 mg/kg, dog 3201F, day 8, Ibb 46 mg/kg BID dry-filled capsules)?
Its concentration at 24 h is 307 nM.

What about the concentration at 24 h [1, 5] of the same molecule?
Its concentration at 24 h is 202 nM.

What about the concentration at 24 h ([1]; female, 125 mg/kg, dog 4201F, day 8, Ibb 125 mg/kg BID dry-filled capsules) of the same molecule?
Its concentration at 24 h is 1960 nM.

What about the concentration at 24 h [1, 6] of the same molecule?
The concentration at 24 h was 704 nM.

And the AUC(0-inf) [1, 3]?
Its AUC(0-inf) is 136 µM·h.

What about the half-life [1, 3] of the same molecule?
The half-life was 4.5 h.

And the AUC(0-inf) [1, 4]?
The AUC(0-inf) was 139 µM·h.

What about the AUC(0-inf) ([1]; female, 46 mg/kg, dog 3201F, day 8, Ibb 46 mg/kg BID dry-filled capsules, emesis) of the same molecule?
Its AUC(0-inf) is 1050 µM·h.

And the AUC(0-inf) ([1]; female, 92 mg/kg, dog 3201F, day 1, Ibb 92 mg/kg QD dry-filled capsules, emesis)?
The AUC(0-inf) was 329 µM·h.

What about the half-life [1, 5] of the same molecule?
Its half-life is 2.3 h.

What about the AUC(0-inf) ([1]; female, 125 mg/kg, dog 4201F, day 8, Ibb 125 mg/kg BID dry-filled capsules, emesis) of the same molecule?
The AUC(0-inf) was 978 µM·h.

What about the AUC(0-inf) ([1]; female, 250 mg/kg, dog 4201F, day 1, Ibb 250 mg/kg QD dry-filled capsules, emesis) of the same molecule?
Its AUC(0-inf) is 745 µM·h.

And the half-life [1, 6]?
Its half-life is 3.2 h.

And the concentration at 24 h [1, 7]?
Its concentration at 24 h is 8 nM.

And the concentration at 24 h [1, 8]?
The concentration at 24 h was 547 nM.

And the concentration at 24 h ([1]; male, 46 mg/kg, dog 3101M, day 8, Ibb 46 mg/kg BID dry-filled capsules)?
The concentration at 24 h was 10600 nM.

What about the concentration at 24 h [1, 9] of the same molecule?
The concentration at 24 h was 1900 nM.

What about the concentration at 24 h ([1]; male, 125 mg/kg, dog 4101M, day 8, Ibb 125 mg/kg BID dry-filled capsules) of the same molecule?
The concentration at 24 h was 54200 nM.

And the concentration at 24 h [1, 10]?
Its concentration at 24 h is 2610 nM.

And the AUC(0-inf) [1, 7]?
Its AUC(0-inf) is 259 µM·h.

What about the half-life [1, 7] of the same molecule?
The half-life was 1.5 h.

What about the AUC(0-inf) [1, 8] of the same molecule?
Its AUC(0-inf) is 324 µM·h.

What about the half-life [1, 8] of the same molecule?
Its half-life is 3.3 h.

What about the AUC(0-inf) ([1]; male, 46 mg/kg, dog 3101M, day 8, Ibb 46 mg/kg BID dry-filled capsules, emesis) of the same molecule?
The AUC(0-inf) was 478 µM·h.

What about the AUC(0-inf) ([1]; male, 92 mg/kg, dog 3101M, day 1, Ibb 92 mg/kg QD dry-filled capsules, emesis) of the same molecule?
Its AUC(0-inf) is 111 µM·h.

And the half-life [1, 9]?
Its half-life is 3.6 h.

What about the AUC(0-inf) ([1]; male, 125 mg/kg, dog 4101M, day 8, Ibb 125 mg/kg BID dry-filled capsules, emesis) of the same molecule?
The AUC(0-inf) was 1390 µM·h.

What about the AUC(0-inf) ([1]; male, 250 mg/kg, dog 4101M, day 1, Ibb 250 mg/kg QD dry-filled capsules, emesis) of the same molecule?
The AUC(0-inf) was 334 µM·h.

And the half-life [1, 10]?
Its half-life is 4.1 h.

And the bioavailability ([2]; beagle, historical parent, PO 5 mg/kg, read-out: Bioavailability (%))?
The bioavailability was 179%.

And the Tmax ([2]; beagle, historical parent, PO 5 mg/kg, read-out: Tmax (hr), PO)?
Its Tmax is 0.5 h.

And the half-life ([2]; male, beagle, iv, […])?
Its half-life is 2 ± 0.21 h.

What about the bioavailability ([2]; male, beagle, oral prodrug, read-out: Bioavailability (%) of parent from prodrug) of the same molecule?
Its bioavailability is 310%.

What about the bioavailability ([2]; male, beagle, oral, 7 mg/kg, read-out: Bioavailability) of the same molecule?
Its bioavailability is 310%.

And the concentration at 24 h ([2]; male, beagle, oral, 7 mg/kg)?
The concentration at 24 h was 37 ± 26 nM.

What about the Tmax ([2]; male, beagle, parent after oral prodrug (~5 mg/kg parent equivalent), read-out: Tmax (hr), PO) of the same molecule?
Its Tmax is 0.4 h.

What about the AUC ([2]; male, beagle, po, 7 mg/kg) of the same molecule?
Its AUC is 66 ± 17 µM·h.

And the Cmax ([2]; male, beagle, po, 7 mg/kg)?
The Cmax was 20000 ± 2400 nM.

And the half-life ([2]; male, beagle, po, 7 mg/kg)?
Its half-life is 2.6 ± 0.21 h.

And the Tmax ([2]; male, beagle, po, 7 mg/kg, read-out: Tmax)?
The Tmax was 0.4 ± 0.13 h.

And the AUC ([2]; iv, 1 mg/kg)?
Its AUC is 3.8 µM·h.

What about the clearance ([2]; iv, 1 mg/kg, read-out: CLtot) of the same molecule?
The clearance was 9.8 mL/min/kg.

What about the MRT ([2]; iv, 1 mg/kg, read-out: MRT) of the same molecule?
Its MRT is 1.8 h.

What about the half-life ([2]; iv, 1 mg/kg) of the same molecule?
The half-life was 1.6 h.

What about the Vd ([2]; iv, 1 mg/kg, read-out: Vdss) of the same molecule?
Its Vd is 1.1 L/kg.

And the concentration at 24 h ([2]; oral, 5 mg/kg)?
Its concentration at 24 h is 34 nM.

What about the AUC ([2]; po, 5 mg/kg) of the same molecule?
The AUC was 30 ± 11 µM·h.

And the bioavailability ([2]; po, 5 mg/kg, read-out: Bioavailability)?
The bioavailability was 179 ± 56%.

And the Cmax ([2]; po, 5 mg/kg)?
Its Cmax is 7700 ± 710 nM.

What about the half-life ([2]; po, 5 mg/kg) of the same molecule?
The half-life was 2.7 ± 0.4 h.

What about the Tmax ([2]; po, 5 mg/kg, read-out: Tmax) of the same molecule?
The Tmax was 0.5 ± 0.25 h.
